Measured values taken from PMC4121618 (Molecular Pain, 2014).
Like-named read-outs stand apart in the source and are kept apart here.

Assays:
[1] = target: T1, DOP receptor (Rattus norvegicus, UniProt P33533); conditions: cited from earlier work; for Ki: read-out: Ki DOP
T1 construct: from tissue; host or cells: Sprague-Dawley rat brain membranes

[2] = target: T2, human MOP receptors (Homo sapiens, UniProt P35372); test: Calcium mobilization assay in CHOhMOP cells expressing Gαqi5; format: cell-based; set-up: expressed in transfected cells; host or cells: CHO cells stably co-expressing Gαqi5; conditions: for Emax: read-out: Calcium mobilization assay Emax
[3] = target: T3, KOP receptor (Rattus norvegicus, UniProt P34975); conditions: cited from earlier work; for Ki: read-out: Ki KOP
T3 construct: from tissue; host or cells: Sprague-Dawley rat brain membranes

[4] = tested on: mice; set-up: method as in PMID 16033285; conditions: s.c., PPQ abdominal stretching test, ref [30]; cited from earlier work
[5] = tested on: mice; set-up: method as in PMID 16033285; conditions: s.c., tail-flick test, ref [30]; cited from earlier work
[6] = target: T2, human MOP receptors; test: [35S]GTPγS functional assay in CHOhMOP cell membranes; format: biochemical; set-up: expressed in transfected cells; host or cells: CHO cells; conditions: for Emax: read-out: [35S]GTPγS functional assay Emax
[7] = tested on: mice; set-up: method as in PMID 16033285; conditions: s.c., hot-plate test, ref [30]; cited from earlier work
[8] = tested on: C6rMOP cells (rat MOP receptor); set-up: method as in PMID 16291875; conditions: ref [36], read-out: Potency EC50; cited from earlier work
[9] = tested on: human MOP receptor in CHO cells; set-up: method as in PMID 14600248; conditions: CHOhMOP, Thompson et al.; ref [35]; read-out: [35S]GTPγS binding EC50; cited from earlier work
[10] = tested on: human MOP receptor; set-up: method as in PMID 22002663; conditions: HEK293 cells co-expressing human MOP receptor and Gαqi3, ref [37], cited from earlier work
[11] = target: T4, MOP receptor (Rattus norvegicus, UniProt P33535); conditions: read-out: Ki MOP; cited from earlier work
T4 construct: from tissue; host or cells: Sprague-Dawley rat brain membranes

[12] = target: T3, KOP receptor; test: Radioligand binding assay, KOP receptor, rat brain membranes ([3H]U69,593); conditions: for Selectivity ratio KOP/MOP: Ki ratio, rat brain membranes
[13] = tested on: mice; test: PPQ abdominal stretching test; format: in vivo; conditions: for ED50: Mus musculus, sc, PPQ abdominal stretching test, read-out: ED50 (95% CL) PPQ; for Times more active than oxycodone (antinociceptive potency): maximum over hot-plate, tail-flick and PPQ assays
[14] = target: T1, DOP receptor; test: Radioligand binding assay, DOP receptor, rat brain membranes ([3H][Ile5,6]deltorphin II); conditions: for Selectivity ratio DOP/MOP: Ki ratio, rat brain membranes
[15] = tested on: mice; test: Tail-flick test; format: in vivo; conditions: s.c.; for ED50: Mus musculus, sc, 20 min, tail-flick test, 20 min after dosing, read-out: ED50 (95% CL) TF
[16] = target: T4, MOP receptor; test: Radioligand binding assay, MOP receptor, rat brain membranes ([3H]DAMGO)
[17] = tested on: mice; test: Hot-plate test; format: in vivo; conditions: s.c.; for ED50: Mus musculus, sc, 0.5 h, hot-plate test, 30 min after dosing, read-out: ED50 (95% CL) HP
[18] = tested on: animals; conditions: ref [14]; cited from earlier work
[19] = tested on: MOP receptor; set-up: method as in PMID 15857143; conditions: ref [13]; cited from earlier work
[20] = target: T5, rat DOP receptors (C6rDOP) (Rattus norvegicus, UniProt P33533); test: Binding assay in C6rDOP cell membranes ([3H]diprenorphine)
T5 construct: expressed in transfected cells

[21] = target: T6, human KOP receptors (CHOhKOP) (Homo sapiens, UniProt P41145); test: Binding assay in CHOhKOP cell membranes ([3H]diprenorphine)
T6 construct: expressed in transfected cells

[22] = target: T7, recombinant rat MOP receptor expressed in C6 glioma cells (Rattus norvegicus, UniProt P33535); test: Binding assay in C6rMOP cell membranes ([3H]diprenorphine)
T7 construct: expressed in transfected cells

[23] = absolute stimulation, set as 100%

T1 sequence (P33533 whole entry): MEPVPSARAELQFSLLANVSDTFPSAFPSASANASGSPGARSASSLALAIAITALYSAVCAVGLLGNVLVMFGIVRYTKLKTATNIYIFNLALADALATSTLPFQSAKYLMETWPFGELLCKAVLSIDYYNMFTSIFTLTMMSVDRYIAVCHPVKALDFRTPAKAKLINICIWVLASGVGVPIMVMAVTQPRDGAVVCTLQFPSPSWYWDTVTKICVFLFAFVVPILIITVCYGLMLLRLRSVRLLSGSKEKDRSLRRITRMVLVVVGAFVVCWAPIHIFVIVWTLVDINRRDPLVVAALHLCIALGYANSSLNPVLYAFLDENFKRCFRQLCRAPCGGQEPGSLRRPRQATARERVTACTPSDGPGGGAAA
T3 sequence (P34975 whole entry): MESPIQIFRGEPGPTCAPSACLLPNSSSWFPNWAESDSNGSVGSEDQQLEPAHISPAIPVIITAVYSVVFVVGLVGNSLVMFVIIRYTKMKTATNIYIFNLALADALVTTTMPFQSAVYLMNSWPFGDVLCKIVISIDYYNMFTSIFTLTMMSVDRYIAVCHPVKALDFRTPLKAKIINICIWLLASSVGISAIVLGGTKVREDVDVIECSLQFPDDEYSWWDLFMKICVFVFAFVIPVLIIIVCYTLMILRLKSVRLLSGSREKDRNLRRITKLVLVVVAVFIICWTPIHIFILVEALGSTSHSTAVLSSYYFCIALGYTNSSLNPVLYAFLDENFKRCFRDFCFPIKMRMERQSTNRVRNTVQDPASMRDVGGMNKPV
T2 sequence (P35372 whole entry): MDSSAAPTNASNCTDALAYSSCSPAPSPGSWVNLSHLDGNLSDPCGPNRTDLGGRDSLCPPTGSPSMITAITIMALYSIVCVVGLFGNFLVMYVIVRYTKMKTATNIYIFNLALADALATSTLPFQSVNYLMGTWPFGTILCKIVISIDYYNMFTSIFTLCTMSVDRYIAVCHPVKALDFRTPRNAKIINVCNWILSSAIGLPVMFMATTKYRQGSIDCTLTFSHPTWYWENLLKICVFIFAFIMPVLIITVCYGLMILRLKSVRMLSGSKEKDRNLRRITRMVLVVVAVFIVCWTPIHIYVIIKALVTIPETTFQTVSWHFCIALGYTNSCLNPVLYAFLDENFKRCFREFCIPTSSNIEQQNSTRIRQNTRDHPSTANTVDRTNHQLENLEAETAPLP
T4 sequence (P33535 whole entry): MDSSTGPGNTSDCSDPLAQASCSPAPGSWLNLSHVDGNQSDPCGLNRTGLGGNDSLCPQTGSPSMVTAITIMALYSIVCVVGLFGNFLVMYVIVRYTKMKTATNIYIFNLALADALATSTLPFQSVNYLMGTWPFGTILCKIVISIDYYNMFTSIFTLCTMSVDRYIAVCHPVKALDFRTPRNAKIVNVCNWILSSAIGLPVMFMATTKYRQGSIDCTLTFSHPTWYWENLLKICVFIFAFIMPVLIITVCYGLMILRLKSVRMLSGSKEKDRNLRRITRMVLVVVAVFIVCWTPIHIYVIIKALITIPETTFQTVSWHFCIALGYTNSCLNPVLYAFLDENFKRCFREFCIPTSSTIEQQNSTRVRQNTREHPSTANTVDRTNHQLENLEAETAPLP
T6 sequence (P41145 whole entry): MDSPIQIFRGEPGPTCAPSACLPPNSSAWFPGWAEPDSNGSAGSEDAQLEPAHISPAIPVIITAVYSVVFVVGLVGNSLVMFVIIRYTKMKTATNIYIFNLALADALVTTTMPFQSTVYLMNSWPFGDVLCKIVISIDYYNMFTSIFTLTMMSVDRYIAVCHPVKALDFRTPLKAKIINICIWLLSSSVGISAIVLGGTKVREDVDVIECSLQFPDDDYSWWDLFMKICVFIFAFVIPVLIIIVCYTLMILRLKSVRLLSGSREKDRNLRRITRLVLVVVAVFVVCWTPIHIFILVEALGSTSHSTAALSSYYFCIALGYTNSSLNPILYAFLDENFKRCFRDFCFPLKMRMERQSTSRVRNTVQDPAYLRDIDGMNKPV
T5 sequence (P33533 whole entry): as the sequence (P33533 whole entry) above
T7 sequence (P33535 whole entry): as the sequence (P33535 whole entry) above

| Structure (SMILES) | Ki [1] [µM] | EC50 [2] [µM] | Times greater potency than oxycodone and 14-OMC, calcium mobilization ([2]; CHOhMOP Gαqi5 cells) | Emax [2] [%] | Ki [3] [µM] | ED50 (95% CL) PPQ [4] | ED50 (95% CL) TF [5] | EC50 [6] [µM] | Emax [6] [%] | ED50 (95% CL) HP [7] | Ki [12] [µM] | Selectivity ratio KOP/MOP [12] | ED50 [13] [mg/kg] | Ki [14] [µM] | Selectivity ratio DOP/MOP [14] | ED50 [15] [mg/kg] | Ki [16] [µM] | ED50 [17] [mg/kg] | other results |
| --- | --- | --- | --- | --- | --- | --- | --- | --- | --- | --- | --- | --- | --- | --- | --- | --- | --- | --- | --- |
| COc1ccc2c(c1O)C13C=C(C#N)CCC1(O)C(C2)N(C)CC3 (stereo not shown) [compound 1] | 0.498 ± 0.079 | 0.957 ± 0.233 | up to 10 times | 57 ± 4 | 1.65 | 0.18 (0.076-0.42) mg/kg, s.c. | 1.88 (1.25-2.83) mg/kg, s.c. | 0.273 ± 0.024 | 98 ± 4 | 0.50 (0.12-2.02) mg/kg, s.c. | – | – | – | – | – | – | – | – | – |
| COc1ccc2c3c1O[C@H]1C(=O)CC[C@@]4(O)[C@@H](C2)N(C)CC[C@]314 [Oxycodone, oxycodone, reference compound] | – | – | – | 38 ± 3 | – | 0.38 (0.19-0.75) mg/kg, s.c. | 0.94 (0.40-2.30) mg/kg, s.c. | – | 92 ± 9 | 1.37 (0.48-3.92) mg/kg, s.c. | – | – | – | – | – | – | – | – | EC50 [8]: 0.373 µM; EC50 [9]: 1.4 µM; Efficacy, changes in intracellular calcium levels [10]: 100%; EC50 ([10]; read-out: Potency, changes in intracellular calcium levels): 1.74 µM |
| C[C@@H](NC(=O)[C@@H](N)Cc1ccc(O)cc1)C(=O)NCC(=O)N(C)[C@@H](Cc1ccccc1)C(=O)NCCO [DAMGO, [D-Ala^2,Me-Phe^4,Gly-ol^5]enkephalin, reference compound] | – | – | – | – | – | – | – | – | – | – | – | – | – | – | – | – | – | – | Maximal DAMGO stimulation in calcium mobilization assay [2, 23]: 217 ± 21%; Maximal DAMGO stimulation in [35S]GTPγS functional assay [6, 23]: 225 ± 32% |
| COc1ccc2c(c1O)C13C=C(C#N)CCC1(OC)C(C2)N(C)CC3 (stereo not shown) [compound 3] | 0.197 ± 0.029 | 0.14 ± 0.021 | up to 10 times | 61 ± 6 | 0.378 ± 0.155 | 0.11 (0.072-0.16) mg/kg, s.c. | 0.21 (0.11-0.40) mg/kg, s.c. | 0.0262 ± 0.0017 | 85 ± 3 | 0.25 (0.11-0.59) mg/kg, s.c. | – | – | – | – | – | – | – | – | Selectivity ratio DOP/MOP [1]: 37; Selectivity ratio KOP/MOP [3]: 70; Ki [11]: 0.00538 ± 0.00042 µM |
| COc1ccc2c3c1O[C@H]1C(=O)CC[C@@]4(OC)[C@@H](C2)N(C)CC[C@]314 [14-OMC, 14-O-methyloxycodone, reference compound] | – | 0.973 ± 0.204 | – | 72 ± 7 | – | – | – | 0.325 ± 0.094 | 137 ± 55 | – | 0.454 ± 0.006 | 13 | 0.22 | 0.116 ± 0.015 | 3 | 0.8 | 0.0353 ± 0.0021 | 1.02 | – |
| COC12CCC(=O)C3Oc4c(O)ccc5c4C31CCN(C)C2C5 (stereo not shown) [14-O-methyloxymorphone] | – | – | – | – | – | – | – | – | – | – | – | – | – | – | – | – | – | – | Times more potent in inducing an antinociceptive effect than oxymorphone [18]: up to 40 times; Times increased binding affinity at the MOP receptor vs oxymorphone [19]: 9 times |
| COc1ccc2c(c1OC)C13C=C(C#N)C=CC1(OC)C(C2)N(C)CC3 (stereo not shown) [compound 5] | – | 0.0217 ± 0.0055 | – | 70 ± 8 | – | – | – | 0.00164 ± 0.00019 | 133 ± 7 | – | 0.2 ± 0.04 | 370 | 0.0023 | 0.0303 ± 0.0029 | 56 | 0.04 | 0.00054 ± 4e-05 | 0.08 | Ki [20]: 0.056 µM; MOP selectivity vs. DOP ([20]; recombinant receptors, C6rDOP vs C6rMOP): 80 times; Ki [21]: 0.229 µM; MOP selectivity vs. KOP ([21]; recombinant receptors, CHOhKOP vs C6rMOP): 327 times; Times more potent than DAMGO, calcium mobilization ([2]; CHOhMOP Gαqi5 cells): about 2 times; Times more active than oxycodone (antinociceptive potency) ([13]; s.c.): up to 165 times; Ki [22]: 0.0007 µM |
| COc1ccc2c3c1OC1C(C#N)=CCC4(OC)C(C2)N(C)CCC314 (stereo not shown) [compound 6] | – | 0.173 ± 0.021 | up to 10 times | 84 ± 10 | – | – | – | 0.0251 ± 0.0036 | 121 ± 27 | – | 0.194 ± 0.068 | 26 | 0.003 | 0.239 ± 0.04 | 32 | 0.12 | 0.00739 ± 0.00034 | 0.089 | Times more potent than 14-OMC, PPQ ([13]; s.c.): 72 times; Times more potent than analogue 3, PPQ ([13]; s.c.): ~37 times; Times more active than oxycodone (antinociceptive potency) ([13]; s.c.): up to 165 times; Times less potent than analogue 5, tail-flick [15]: 3 times; Times more potent than 14-OMC, tail-flick [15]: 7 times; Times more potent than analogue 3, tail-flick [15]: ~2 times; Increase in binding to the MOP receptor vs 6-keto counterpart 14-OMC ([16]; rat brain membranes): about 5 times; Times more potent than 14-OMC, hot-plate [17]: 11 times; Times more potent than analogue 3, hot-plate [17]: ca. 3 times |
| COc1ccc2c(c1OC)C13C=C(C(N)=O)CCC1(OC)C(C2)N(C)CC3 (stereo not shown) [compound 4] | – | 0.0561 ± 0.0113 | – | 59 ± 8 | – | – | – | 0.0256 ± 0.0095 | 107 ± 26 | – | 0.105 ± 0.045 | 65 | 0.18 | 0.0288 ± 0.0023 | 18 | 1.34 | 0.00161 ± 5e-05 | 1.3 | Times less active than compound 1, hot-plate [17]: about 3 times |
| COc1ccc2c(c1OC)C13C=C(C#N)CCC1(O)C(C2)N(C)CC3 (stereo not shown) [compound 2] | 0.107 ± 0.005 | 0.116 ± 0.009 | up to 10 times | 69 ± 7 | 0.364 ± 0.007 | 0.026 (0.012-0.055) mg/kg, s.c. | 0.12 (0.061-0.23) mg/kg, s.c. | 0.0425 ± 0.0149 | 97 ± 15 | 0.15 (0.054-0.41) mg/kg, s.c. | – | – | – | – | – | – | – | – | Selectivity ratio DOP/MOP [1]: 44; Selectivity ratio KOP/MOP [3]: 149; Ki [11]: 0.00244 ± 0.00013 µM |
